Results taken from PubChem BioAssay (NCI).
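At the GI50, growth is halved. The concentration for full growth arrest is given as TGI.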

What was measured:
Assay in all cases: growth of human tumour cells (NCI), 384-well format
HCT-116 colon = system: HCT-116 colon
SNB-75 CNS = system: SNB-75 CNS
MALME-3M melanoma = system: MALME-3M melanoma
M14 melanoma = system: M14 melanoma
SK-MEL-28 melanoma = system: SK-MEL-28 melanoma
IGROV1 ovarian = system: IGROV1 ovarian
CAKI-1 renal = system: CAKI-1 renal
OVCAR-8 ovarian = system: OVCAR-8 ovarian
RPMI-8226 leukemia = system: RPMI-8226 leukemia
SR leukemia = system: SR leukemia
DU-145 prostate = system: DU-145 prostate
NCI/ADR-RES ovarian = system: NCI/ADR-RES ovarian
HCC-2998 colon = system: HCC-2998 colon
COLO 205 colon = system: COLO 205 colon
MOLT-4 leukemia = system: MOLT-4 leukemia
HCT-15 colon = system: HCT-15 colon
A549 NSCLC = system: A549 NSCLC
ACHN renal = system: ACHN renal
EKVX NSCLC = system: EKVX NSCLC
KM12 colon = system: KM12 colon
U251 glioblastoma = system: U251 glioblastoma
HS 578T breast = system: HS 578T breast
BT-549 breast = system: BT-549 breast
MDA-MB-231 breast = system: MDA-MB-231 breast
NCI-H226 lung = system: NCI-H226 lung
OVCAR-5 ovarian = system: OVCAR-5 ovarian
SF-268 CNS = system: SF-268 CNS
UACC-257 melanoma = system: UACC-257 melanoma
NCI-H23 lung = system: NCI-H23 lung
MDA-MB-468 breast = system: MDA-MB-468 breast
SNB-19 CNS = system: SNB-19 CNS
NCI-H522 lung = system: NCI-H522 lung
MCF7 breast = system: MCF7 breast
SK-MEL-5 melanoma = system: SK-MEL-5 melanoma
K-562 leukemia = system: K-562 leukemia
SK-OV-3 ovarian = system: SK-OV-3 ovarian
786-0 renal = system: 786-0 renal
LOX IMVI melanoma = system: LOX IMVI melanoma
NCI-H322M lung = system: NCI-H322M lung
T-47D breast = system: T-47D breast
SN12C renal = system: SN12C renal
OVCAR-3 ovarian = system: OVCAR-3 ovarian
HOP-62 NSCLC = system: HOP-62 NSCLC
SW-620 colon = system: SW-620 colon
HL-60(TB) leukemia = system: HL-60(TB) leukemia
A498 renal = system: A498 renal
HOP-92 NSCLC = system: HOP-92 NSCLC
UO-31 renal = system: UO-31 renal
NCI-H460 NSCLC = system: NCI-H460 NSCLC
HT29 colon = system: HT29 colon
TK-10 renal = system: TK-10 renal
SF-539 CNS = system: SF-539 CNS
SF-295 CNS = system: SF-295 CNS
CCRF-CEM leukemia = system: CCRF-CEM leukemia
OVCAR-4 ovarian = system: OVCAR-4 ovarian
RXF 393 renal = system: RXF 393 renal
MDA-MB-435 melanoma = system: MDA-MB-435 melanoma
PC-3 prostate = system: PC-3 prostate

`Cc1noc(C)c1-c1ccc2[nH]c(=O)n3c2c1OC[C@@H]3c1ccccn1` was tested, and the GI50 (HCT-116 colon) was 501 nM, the TGI (HCT-116 colon) was greater than 100000 nM and the GI50 (SNB-75 CNS) was 1270 nM. The TGI (SNB-75 CNS) was greater than 100000 nM, the GI50 (MALME-3M melanoma) was 398 nM and the TGI (MALME-3M melanoma) was 32300 nM. For the same compound, the GI50 (M14 melanoma) was 720 nM, the TGI (M14 melanoma) was greater than 100000 nM and the GI50 (SK-MEL-28 melanoma) was 813 nM. For the same compound, the TGI (SK-MEL-28 melanoma) was greater than 100000 nM, the GI50 (IGROV1 ovarian) was 532 nM and the TGI (IGROV1 ovarian) was 53000 nM. For the same compound, the GI50 (CAKI-1 renal) was 243 nM, the TGI (CAKI-1 renal) was greater than 100000 nM and the GI50 (OVCAR-8 ovarian) was 473 nM. For the same compound, the TGI (OVCAR-8 ovarian) was greater than 100000 nM, the GI50 (RPMI-8226 leukemia) was 133 nM and the TGI (RPMI-8226 leukemia) was 533 nM. The GI50 (SR leukemia) was 52.3 nM, the TGI (SR leukemia) was 2040 nM and the GI50 (DU-145 prostate) was 14200 nM. It also gave a TGI (DU-145 prostate) greater than 100000 nM, a GI50 (NCI/ADR-RES ovarian) of 653 nM and a TGI (NCI/ADR-RES ovarian) of 18500 nM. For the same compound, the GI50 (HCC-2998 colon) was 127 nM, the TGI (HCC-2998 colon) was 2110 nM and the GI50 (COLO 205 colon) was 527 nM. It also gave a TGI (COLO 205 colon) greater than 100000 nM, a GI50 (MOLT-4 leukemia) of 421 nM and a TGI (MOLT-4 leukemia) of 11900 nM. It also gave a GI50 (HCT-15 colon) of 240 nM, a TGI (HCT-15 colon) of 12000 nM and a GI50 (A549 NSCLC) of 656 nM. The TGI (A549 NSCLC) was greater than 100000 nM, the GI50 (ACHN renal) was 1220 nM and the TGI (ACHN renal) was greater than 100000 nM. It also gave a GI50 (EKVX NSCLC) greater than 100000 nM, a TGI (EKVX NSCLC) greater than 100000 nM and a GI50 (KM12 colon) of 1360 nM. It also gave a TGI (KM12 colon) greater than 100000 nM, a GI50 (U251 glioblastoma) of 2560 nM and a TGI (U251 glioblastoma) greater than 100000 nM. For the same compound, the GI50 (HS 578T breast) was 152 nM, the TGI (HS 578T breast) was 1600 nM and the GI50 (BT-549 breast) was 293 nM. For the same compound, the TGI (BT-549 breast) was 25200 nM, the GI50 (MDA-MB-231 breast) was 605 nM and the TGI (MDA-MB-231 breast) was greater than 100000 nM. It also gave a GI50 (NCI-H226 lung) of 1430 nM, a TGI (NCI-H226 lung) greater than 100000 nM and a GI50 (OVCAR-5 ovarian) of 529 nM. For the same compound, the TGI (OVCAR-5 ovarian) was greater than 100000 nM, the GI50 (SF-268 CNS) was 3010 nM and the TGI (SF-268 CNS) was greater than 100000 nM. For the same compound, the GI50 (UACC-257 melanoma) was 925 nM, the TGI (UACC-257 melanoma) was greater than 100000 nM and the GI50 (NCI-H23 lung) was 483 nM. For the same compound, the TGI (NCI-H23 lung) was greater than 100000 nM, the GI50 (MDA-MB-468 breast) was 241 nM and the TGI (MDA-MB-468 breast) was 8120 nM. For the same compound, the GI50 (SNB-19 CNS) was 1870 nM, the TGI (SNB-19 CNS) was greater than 100000 nM and the GI50 (NCI-H522 lung) was 76.6 nM. For the same compound, the TGI (NCI-H522 lung) was 4800 nM, the GI50 (MCF7 breast) was 125 nM and the TGI (MCF7 breast) was greater than 100000 nM. The GI50 (SK-MEL-5 melanoma) was 198 nM, the TGI (SK-MEL-5 melanoma) was 9840 nM and the GI50 (K-562 leukemia) was 436 nM. For the same compound, the TGI (K-562 leukemia) was greater than 100000 nM, the GI50 (SK-OV-3 ovarian) was 244 nM and the TGI (SK-OV-3 ovarian) was 21300 nM. It also gave a GI50 ([…]-0 renal) of 749 nM, a TGI (786-0 renal) greater than 100000 nM and a GI50 (LOX IMVI melanoma) of 277 nM. The TGI (LOX IMVI melanoma) was 1040 nM, the GI50 (NCI-H322M lung) was 591 nM and the TGI (NCI-H322M lung) was greater than 100000 nM. It also gave a GI50 (T-47D breast) of 318 nM, a TGI (T-47D breast) of 47800 nM and a GI50 (SN12C renal) of 3690 nM. For the same compound, the TGI (SN12C renal) was greater than 100000 nM, the GI50 (OVCAR-3 ovarian) was 227 nM and the TGI (OVCAR-3 ovarian) was greater than 100000 nM. For the same compound, the GI50 (HOP-62 NSCLC) was 304 nM, the TGI (HOP-62 NSCLC) was 62200 nM and the GI50 (SW-620 colon) was greater than 100000 nM. For the same compound, the TGI (SW-620 colon) was greater than 100000 nM, the GI50 (HL-60(TB) leukemia) was 55.6 nM and the TGI (HL-60(TB) leukemia) was 170 nM. The GI50 (A498 renal) was 420 nM, the TGI (A498 renal) was greater than 100000 nM and the GI50 (HOP-92 NSCLC) was 241 nM. For the same compound, the TGI (HOP-92 NSCLC) was greater than 100000 nM, the GI50 (UO-31 renal) was 722 nM and the TGI (UO-31 renal) was greater than 100000 nM. For the same compound, the GI50 (NCI-H460 NSCLC) was 2190 nM, the TGI (NCI-H460 NSCLC) was greater than 100000 nM and the GI50 (HT29 colon) was 371 nM. It also gave a TGI (HT29 colon) greater than 100000 nM, a GI50 (TK-10 renal) of 265 nM and a TGI (TK-10 renal) of 23100 nM. It also gave a GI50 (SF-539 CNS) of 449 nM, a TGI (SF-539 CNS) of 8790 nM and a GI50 (SF-295 CNS) of 144 nM. It also gave a TGI (SF-295 CNS) of 41800 nM, a GI50 (CCRF-CEM leukemia) of 584 nM and a TGI (CCRF-CEM leukemia) greater than 100000 nM. The GI50 (OVCAR-4 ovarian) was 107 nM, the TGI (OVCAR-4 ovarian) was 495 nM and the GI50 (RXF 393 renal) was 483 nM. The TGI (RXF 393 renal) was 11000 nM, the GI50 (MDA-MB-435 melanoma) was 13700 nM and the TGI (MDA-MB-435 melanoma) was greater than 100000 nM. For the same compound, the GI50 (PC-3 prostate) was 245 nM and the TGI (PC-3 prostate) was greater than 100000 nM.
